This note sets out measurements from ChEMBL document CHEMBL3991601, “The target landscape of clinical kinase drugs” (Science, 2017).

Molecules are shown by their SMILES. Calls of active or inactive are those of the source. For most assays here, no stated cut-off is given here; in the data, actives have a measured Kd and inactives only a lower limit.

Experiment [1] has as its target Mitotic checkpoint serine/threonine-protein kinase BUB1 (Homo sapiens, UniProt O43683).
The target of experiment [2] is Bone morphogenetic protein receptor type-1A (Homo sapiens, UniProt P36894).
For experiment [3], the target named is T1, AarF domain-containing protein kinase 1 (Homo sapiens, UniProt Q86TW2).
T1 sequence (Q86TW2 whole entry): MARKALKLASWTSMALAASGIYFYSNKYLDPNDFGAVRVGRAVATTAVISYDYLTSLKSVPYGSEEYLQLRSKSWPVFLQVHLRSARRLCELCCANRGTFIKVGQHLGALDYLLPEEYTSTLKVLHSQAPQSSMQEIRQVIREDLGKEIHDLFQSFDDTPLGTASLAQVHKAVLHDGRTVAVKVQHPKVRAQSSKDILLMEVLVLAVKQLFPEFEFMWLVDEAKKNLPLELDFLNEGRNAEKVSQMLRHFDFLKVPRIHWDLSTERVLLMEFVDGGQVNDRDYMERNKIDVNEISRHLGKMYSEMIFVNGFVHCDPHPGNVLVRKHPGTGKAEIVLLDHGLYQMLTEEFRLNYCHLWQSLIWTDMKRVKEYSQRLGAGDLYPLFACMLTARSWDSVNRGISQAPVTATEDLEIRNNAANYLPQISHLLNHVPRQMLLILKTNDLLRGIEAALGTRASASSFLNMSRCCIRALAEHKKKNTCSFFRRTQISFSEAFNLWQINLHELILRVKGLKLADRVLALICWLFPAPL

In a further experiment the target is Deoxycytidine kinase (Homo sapiens, UniProt P27707).
Experiment [4] addresses Ribosomal protein S6 kinase alpha-5 (Homo sapiens, UniProt O75582).
For experiment [5], the target named is Cyclin-dependent kinase 12 (Homo sapiens, UniProt Q9NYV4).
Experiment [6] deals with Dual specificity tyrosine-phosphorylation-regulated kinase 1A (Homo sapiens, UniProt Q13627).
The target of a further experiment is T2, Ephrin type-B receptor 3 (Homo sapiens, UniProt P54753).
T2 sequence (P54753 whole entry): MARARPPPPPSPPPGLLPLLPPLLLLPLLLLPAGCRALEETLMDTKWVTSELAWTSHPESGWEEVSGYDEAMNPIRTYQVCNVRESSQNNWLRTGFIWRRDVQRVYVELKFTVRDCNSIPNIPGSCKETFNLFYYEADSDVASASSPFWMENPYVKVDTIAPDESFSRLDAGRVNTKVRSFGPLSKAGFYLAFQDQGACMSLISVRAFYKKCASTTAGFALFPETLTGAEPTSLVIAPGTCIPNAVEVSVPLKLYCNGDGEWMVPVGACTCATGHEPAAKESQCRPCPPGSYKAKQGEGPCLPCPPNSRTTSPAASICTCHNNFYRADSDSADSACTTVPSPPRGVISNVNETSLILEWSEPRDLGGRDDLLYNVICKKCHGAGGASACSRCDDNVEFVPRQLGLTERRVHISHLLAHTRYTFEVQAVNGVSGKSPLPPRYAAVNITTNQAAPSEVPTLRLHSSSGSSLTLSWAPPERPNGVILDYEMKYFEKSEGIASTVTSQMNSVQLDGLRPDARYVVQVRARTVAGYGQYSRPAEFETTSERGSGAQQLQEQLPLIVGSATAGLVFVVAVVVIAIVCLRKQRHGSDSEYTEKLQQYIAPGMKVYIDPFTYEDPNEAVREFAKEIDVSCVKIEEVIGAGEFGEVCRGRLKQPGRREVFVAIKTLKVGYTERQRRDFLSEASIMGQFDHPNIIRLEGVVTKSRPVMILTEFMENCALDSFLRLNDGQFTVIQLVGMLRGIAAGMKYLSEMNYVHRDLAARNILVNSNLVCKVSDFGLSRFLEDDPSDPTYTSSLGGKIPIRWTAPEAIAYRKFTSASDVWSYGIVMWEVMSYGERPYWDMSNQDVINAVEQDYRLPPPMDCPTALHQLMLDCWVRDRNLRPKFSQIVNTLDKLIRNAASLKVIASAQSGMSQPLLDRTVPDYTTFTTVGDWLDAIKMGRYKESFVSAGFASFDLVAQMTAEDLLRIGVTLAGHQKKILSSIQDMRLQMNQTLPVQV

The target of experiment [7] is Mitogen-activated protein kinase 8 (Homo sapiens, UniProt P45983).
Experiment [8] has as its target MAP kinase-activated protein kinase 2 (Homo sapiens, UniProt P49137).
In another experiment the target is T3, Activin receptor type-1B (Homo sapiens, UniProt P36896).
T3 sequence (P36896 whole entry): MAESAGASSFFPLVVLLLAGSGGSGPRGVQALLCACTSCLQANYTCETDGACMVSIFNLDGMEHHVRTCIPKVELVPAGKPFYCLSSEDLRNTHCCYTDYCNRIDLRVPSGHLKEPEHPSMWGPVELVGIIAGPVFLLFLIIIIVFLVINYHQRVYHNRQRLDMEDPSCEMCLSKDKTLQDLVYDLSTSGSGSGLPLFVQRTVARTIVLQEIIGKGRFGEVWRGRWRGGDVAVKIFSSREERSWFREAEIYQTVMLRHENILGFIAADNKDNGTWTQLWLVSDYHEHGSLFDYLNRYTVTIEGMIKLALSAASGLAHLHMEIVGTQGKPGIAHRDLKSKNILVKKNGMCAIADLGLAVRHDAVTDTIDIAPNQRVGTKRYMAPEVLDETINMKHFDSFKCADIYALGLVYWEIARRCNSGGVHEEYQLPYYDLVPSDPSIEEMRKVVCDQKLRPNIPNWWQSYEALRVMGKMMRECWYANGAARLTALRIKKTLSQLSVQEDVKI

For experiment [9], the target named is T4, Uncharacterized protein FLJ45252 (Homo sapiens, UniProt Q6ZSR9).
T4 sequence (Q6ZSR9 whole entry): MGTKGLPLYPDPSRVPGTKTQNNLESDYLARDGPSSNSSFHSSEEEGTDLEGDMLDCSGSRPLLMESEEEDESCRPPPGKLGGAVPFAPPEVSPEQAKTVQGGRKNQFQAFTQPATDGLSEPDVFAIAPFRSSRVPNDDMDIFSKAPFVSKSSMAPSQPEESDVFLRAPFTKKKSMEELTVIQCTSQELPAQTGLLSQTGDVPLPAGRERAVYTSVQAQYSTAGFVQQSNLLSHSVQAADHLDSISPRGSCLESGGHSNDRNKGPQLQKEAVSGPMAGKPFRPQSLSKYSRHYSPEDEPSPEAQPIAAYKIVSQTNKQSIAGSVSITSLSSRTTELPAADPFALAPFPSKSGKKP
To be noted: read-out: Kd apparent; k-562, colo 205, sk-n-be(2) and mv-4-11.

Ribosomal protein S6 kinase alpha-5, sequence (O75582 whole entry): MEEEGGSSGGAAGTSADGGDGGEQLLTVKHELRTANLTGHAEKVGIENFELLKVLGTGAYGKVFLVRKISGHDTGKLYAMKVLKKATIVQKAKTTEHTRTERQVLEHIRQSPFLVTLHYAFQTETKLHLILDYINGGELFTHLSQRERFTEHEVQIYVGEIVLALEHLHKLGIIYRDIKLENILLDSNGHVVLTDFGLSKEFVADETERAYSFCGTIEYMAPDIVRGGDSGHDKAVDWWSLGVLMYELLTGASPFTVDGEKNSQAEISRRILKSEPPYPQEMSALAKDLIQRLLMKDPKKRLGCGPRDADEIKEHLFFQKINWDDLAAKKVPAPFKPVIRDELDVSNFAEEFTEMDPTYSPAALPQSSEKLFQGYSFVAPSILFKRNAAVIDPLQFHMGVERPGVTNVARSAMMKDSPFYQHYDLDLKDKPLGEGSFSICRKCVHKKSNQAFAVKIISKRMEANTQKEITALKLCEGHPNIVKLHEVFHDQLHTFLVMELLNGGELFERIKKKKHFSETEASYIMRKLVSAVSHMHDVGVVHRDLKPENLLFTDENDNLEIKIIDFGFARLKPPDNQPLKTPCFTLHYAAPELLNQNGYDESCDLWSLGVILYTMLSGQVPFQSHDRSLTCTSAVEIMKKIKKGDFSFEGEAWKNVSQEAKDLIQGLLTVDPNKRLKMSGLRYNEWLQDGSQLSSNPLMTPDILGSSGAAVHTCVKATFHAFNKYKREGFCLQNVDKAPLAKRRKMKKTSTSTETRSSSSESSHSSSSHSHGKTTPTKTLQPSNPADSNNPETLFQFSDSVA
MAP kinase-activated protein kinase 2, sequence (P49137 whole entry): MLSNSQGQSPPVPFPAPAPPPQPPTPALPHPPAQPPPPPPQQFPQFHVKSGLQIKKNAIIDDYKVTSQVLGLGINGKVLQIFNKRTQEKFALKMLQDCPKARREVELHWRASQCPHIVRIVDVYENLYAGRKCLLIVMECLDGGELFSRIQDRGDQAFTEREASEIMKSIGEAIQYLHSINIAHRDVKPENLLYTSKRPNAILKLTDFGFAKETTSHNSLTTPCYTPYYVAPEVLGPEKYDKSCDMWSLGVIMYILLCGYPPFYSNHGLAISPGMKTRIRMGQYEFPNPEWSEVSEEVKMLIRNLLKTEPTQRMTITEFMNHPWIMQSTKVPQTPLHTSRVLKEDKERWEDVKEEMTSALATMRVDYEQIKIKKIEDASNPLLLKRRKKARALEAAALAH
Deoxycytidine kinase, sequence (P27707 whole entry): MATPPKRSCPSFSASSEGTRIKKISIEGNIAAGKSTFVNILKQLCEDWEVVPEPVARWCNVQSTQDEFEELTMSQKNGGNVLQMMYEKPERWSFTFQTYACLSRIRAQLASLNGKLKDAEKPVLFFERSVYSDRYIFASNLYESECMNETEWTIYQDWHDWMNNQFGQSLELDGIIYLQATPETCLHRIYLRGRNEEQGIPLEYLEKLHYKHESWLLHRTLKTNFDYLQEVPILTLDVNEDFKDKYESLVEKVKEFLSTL
Mitogen-activated protein kinase 8, sequence (P45983 whole entry): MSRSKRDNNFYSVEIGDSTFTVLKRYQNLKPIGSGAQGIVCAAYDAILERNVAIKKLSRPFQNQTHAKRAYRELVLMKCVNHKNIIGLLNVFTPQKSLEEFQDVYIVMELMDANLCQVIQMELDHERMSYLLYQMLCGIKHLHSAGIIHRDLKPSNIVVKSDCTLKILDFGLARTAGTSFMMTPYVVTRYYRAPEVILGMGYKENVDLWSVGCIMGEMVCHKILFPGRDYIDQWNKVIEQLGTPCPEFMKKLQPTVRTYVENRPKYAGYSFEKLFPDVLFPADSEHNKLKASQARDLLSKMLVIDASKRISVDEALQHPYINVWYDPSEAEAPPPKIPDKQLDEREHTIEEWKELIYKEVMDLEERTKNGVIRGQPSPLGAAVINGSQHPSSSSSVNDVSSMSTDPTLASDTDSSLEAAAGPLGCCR
Cyclin-dependent kinase 12, sequence (Q9NYV4 whole entry): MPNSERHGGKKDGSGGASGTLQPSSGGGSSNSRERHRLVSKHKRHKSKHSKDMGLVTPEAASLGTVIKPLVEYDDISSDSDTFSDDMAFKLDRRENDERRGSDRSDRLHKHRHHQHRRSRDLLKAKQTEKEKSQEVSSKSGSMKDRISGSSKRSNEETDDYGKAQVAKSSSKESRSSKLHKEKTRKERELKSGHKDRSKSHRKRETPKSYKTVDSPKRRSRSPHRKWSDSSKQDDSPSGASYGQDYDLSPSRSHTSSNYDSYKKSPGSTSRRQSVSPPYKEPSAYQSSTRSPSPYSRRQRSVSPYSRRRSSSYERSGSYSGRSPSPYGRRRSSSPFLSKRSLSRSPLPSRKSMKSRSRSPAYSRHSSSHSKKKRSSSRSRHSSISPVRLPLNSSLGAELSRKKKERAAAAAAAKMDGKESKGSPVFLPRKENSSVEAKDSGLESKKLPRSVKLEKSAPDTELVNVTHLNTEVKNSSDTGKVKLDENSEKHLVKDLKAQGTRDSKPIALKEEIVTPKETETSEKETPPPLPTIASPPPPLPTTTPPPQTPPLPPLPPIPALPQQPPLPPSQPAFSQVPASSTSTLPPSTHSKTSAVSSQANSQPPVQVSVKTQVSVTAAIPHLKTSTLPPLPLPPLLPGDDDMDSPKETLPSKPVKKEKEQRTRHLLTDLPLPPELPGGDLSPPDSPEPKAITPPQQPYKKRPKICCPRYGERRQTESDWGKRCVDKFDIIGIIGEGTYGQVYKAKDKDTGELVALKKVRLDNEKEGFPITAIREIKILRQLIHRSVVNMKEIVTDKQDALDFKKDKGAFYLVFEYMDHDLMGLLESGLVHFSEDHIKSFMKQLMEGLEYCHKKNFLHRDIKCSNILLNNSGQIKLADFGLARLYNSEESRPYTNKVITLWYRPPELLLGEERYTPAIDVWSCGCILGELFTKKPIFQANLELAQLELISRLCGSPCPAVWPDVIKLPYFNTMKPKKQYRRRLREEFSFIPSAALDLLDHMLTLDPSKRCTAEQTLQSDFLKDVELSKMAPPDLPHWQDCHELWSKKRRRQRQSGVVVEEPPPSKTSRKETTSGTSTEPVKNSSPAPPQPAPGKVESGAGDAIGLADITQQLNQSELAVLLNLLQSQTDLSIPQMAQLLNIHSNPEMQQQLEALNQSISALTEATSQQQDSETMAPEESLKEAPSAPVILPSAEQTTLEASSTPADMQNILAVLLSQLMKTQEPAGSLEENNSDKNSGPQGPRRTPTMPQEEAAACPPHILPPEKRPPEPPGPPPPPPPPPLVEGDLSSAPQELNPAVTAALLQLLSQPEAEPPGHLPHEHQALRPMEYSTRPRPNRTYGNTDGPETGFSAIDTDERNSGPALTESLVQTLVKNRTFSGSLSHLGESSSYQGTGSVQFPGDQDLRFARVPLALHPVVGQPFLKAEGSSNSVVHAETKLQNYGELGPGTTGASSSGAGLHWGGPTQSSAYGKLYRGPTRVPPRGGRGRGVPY
Bone morphogenetic protein receptor type-1A, sequence (P36894 whole entry, the tested form may be a part): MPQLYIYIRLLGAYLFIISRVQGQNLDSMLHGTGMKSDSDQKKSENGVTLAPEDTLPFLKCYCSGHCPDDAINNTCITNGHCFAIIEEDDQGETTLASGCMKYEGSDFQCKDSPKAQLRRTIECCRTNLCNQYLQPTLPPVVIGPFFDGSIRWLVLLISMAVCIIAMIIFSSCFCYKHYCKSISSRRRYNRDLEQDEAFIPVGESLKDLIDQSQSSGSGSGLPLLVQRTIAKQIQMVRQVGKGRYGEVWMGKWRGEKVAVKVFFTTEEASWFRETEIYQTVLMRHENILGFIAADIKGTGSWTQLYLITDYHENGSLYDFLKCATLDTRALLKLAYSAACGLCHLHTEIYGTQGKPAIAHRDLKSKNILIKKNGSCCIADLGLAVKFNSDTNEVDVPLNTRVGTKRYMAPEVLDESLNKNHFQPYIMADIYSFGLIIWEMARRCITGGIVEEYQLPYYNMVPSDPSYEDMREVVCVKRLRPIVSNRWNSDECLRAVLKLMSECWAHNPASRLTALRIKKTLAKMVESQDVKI
Mitotic checkpoint serine/threonine-protein kinase BUB1, sequence (O43683 whole entry): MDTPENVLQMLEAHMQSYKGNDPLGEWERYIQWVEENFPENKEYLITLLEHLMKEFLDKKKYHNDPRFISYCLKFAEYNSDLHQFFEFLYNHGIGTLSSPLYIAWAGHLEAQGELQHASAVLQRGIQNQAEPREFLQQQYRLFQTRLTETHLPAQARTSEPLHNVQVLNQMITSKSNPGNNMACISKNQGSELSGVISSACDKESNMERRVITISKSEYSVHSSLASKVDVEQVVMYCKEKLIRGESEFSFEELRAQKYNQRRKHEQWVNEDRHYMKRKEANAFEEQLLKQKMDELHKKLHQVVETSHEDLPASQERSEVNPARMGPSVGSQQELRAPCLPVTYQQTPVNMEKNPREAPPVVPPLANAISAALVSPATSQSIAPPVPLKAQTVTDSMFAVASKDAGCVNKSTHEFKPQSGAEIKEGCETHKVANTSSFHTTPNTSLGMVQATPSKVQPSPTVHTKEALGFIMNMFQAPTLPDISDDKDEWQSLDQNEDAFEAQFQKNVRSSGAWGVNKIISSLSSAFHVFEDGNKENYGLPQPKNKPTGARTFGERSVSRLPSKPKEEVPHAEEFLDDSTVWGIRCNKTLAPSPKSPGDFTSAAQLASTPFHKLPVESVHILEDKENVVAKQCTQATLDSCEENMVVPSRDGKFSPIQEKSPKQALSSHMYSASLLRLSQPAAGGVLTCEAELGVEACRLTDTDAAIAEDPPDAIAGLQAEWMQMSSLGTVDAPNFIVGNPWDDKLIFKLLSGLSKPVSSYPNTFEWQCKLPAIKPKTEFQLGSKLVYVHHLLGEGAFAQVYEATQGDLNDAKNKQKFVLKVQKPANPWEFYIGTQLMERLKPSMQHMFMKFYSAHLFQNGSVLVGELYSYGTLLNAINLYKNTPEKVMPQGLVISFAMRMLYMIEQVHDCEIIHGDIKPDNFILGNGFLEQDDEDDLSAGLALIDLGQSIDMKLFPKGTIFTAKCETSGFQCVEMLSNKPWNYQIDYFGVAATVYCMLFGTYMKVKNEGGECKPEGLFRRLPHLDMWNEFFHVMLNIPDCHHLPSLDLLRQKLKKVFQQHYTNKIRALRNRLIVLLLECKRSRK

`CC(=O)c1cnc2ccc(-c3cc(Cl)c(O)c(Cl)c3)nc2c1N[C@H]1CC[C@H](CN(C)C)CC1`: the Kd was > 30 µM (inactive) in [1]; > 30 µM (inactive) in experiment [2]; > 30 µM (inactive) in [3]; > 30 µM (inactive) at Deoxycytidine kinase; 0.298 µM (active) in experiment [4]; > 30 µM (inactive) in experiment [5]. Moreover, the results for the Kd (in experiment [6]; on Ephrin type-B receptor 3) were 0.01 µM (active) and > 30 µM (inactive), respectively.
As to `Cc1cc(C(=O)NOCCO)c(Nc2ccc(I)cc2F)n(C)c1=O` [AZD-8330], the Kd (in experiment [2]; in [7]; in [8]; in [3]; at Deoxycytidine kinase; in experiment [4]) was > 30 µM (inactive) each time. Further, the Kd (on Activin receptor type-1B; in [5]; in experiment [6]; in experiment [9]; at Ephrin type-B receptor 3) was > 30 µM (inactive) throughout.
With `Cn1cc(C2=C(c3cn(C4CCN(Cc5ccccn5)CC4)c4ccccc34)C(=O)NC2=O)c2ccccc21` [ENZASTAURIN], the Kd (in experiment [1]; in experiment [3]; at Deoxycytidine kinase; in experiment [5]; in experiment [9]) was > 30 µM (inactive) throughout.
For the compound `O=C(Nc1nc2cccc(-c3ccc(CN4CCS(=O)(=O)CC4)cc3)n2n1)C1CC1` [FILGOTINIB], the Kd in experiment [1] was > 30 µM (inactive); in experiment [2], > 30 µM (inactive); in [7], > 30 µM (inactive); in [8], > 30 µM (inactive); in [3], 2.03 µM (active); on Deoxycytidine kinase it was > 30 µM (inactive). Further, the Kd (in [4]; at Activin receptor type-1B; in experiment [5]; in [6]; at Ephrin type-B receptor 3) was > 30 µM (inactive) throughout.
`CCn1cc(-c2ccnc3[nH]c(-c4cccc(CN(C)C)c4)cc23)c(-c2ccc(NC(=O)N(C)C)cc2)n1` [GSK-1070916]: the Kd in experiment [1] was > 30 µM (inactive); in [2], > 30 µM (inactive); in experiment [3] it was 22.7 µM (active); at Deoxycytidine kinase, 2.16 µM (active); in experiment [4] it was > 30 µM (inactive); on Activin receptor type-1B, 1.21 µM (active). Besides, the Kd (in experiment [5]; in [6]; on Ephrin type-B receptor 3) was > 30 µM (inactive) in each case.
Take `COc1ncc(-c2ccc3nccc(-c4ccnnc4)c3c2)cc1NS(=O)(=O)c1ccc(F)cc1F` [OMIPALISIB]: the Kd (in experiment [2]; in [7]; in experiment [8]; in experiment [3]; at Deoxycytidine kinase; in experiment [4]) was > 30 µM (inactive) each time. For the same compound, the Kd (at Activin receptor type-1B; in experiment [5]; in experiment [6]; in [9]; on Ephrin type-B receptor 3) was > 30 µM (inactive) in each case.
With `CCCCCCCCCCCCCCCCCCOP(=O)([O-])OC1CC[N+](C)(C)CC1` [PERIFOSINE], the Kd (in experiment [2]; in [7]; in experiment [8]; in [3]; on Deoxycytidine kinase; in experiment [4]) was > 30 µM (inactive) throughout. For the same compound, the Kd (on Activin receptor type-1B; in experiment [5]; in experiment [6]; in experiment [9]; on Ephrin type-B receptor 3) was > 30 µM (inactive) in each case.
Turning to `CC(=O)NCC(=O)N1[C@@H]2CC[C@H]1c1ccc(Nc3ncc(C(F)(F)F)c(NC4CCC4)n3)cc12` [PF-03814735], the Kd (in experiment [1]; in experiment [2]; in experiment [3]; on Deoxycytidine kinase; in [4]; on Activin receptor type-1B) was > 30 µM (inactive) each time. Besides, the Kd in experiment [5] was > 30 µM (inactive); in experiment [9], 0.01 µM (active); on Ephrin type-B receptor 3, > 30 µM (inactive).
Consider `CNC(=O)c1cc(Oc2ccc(NC(=O)Nc3cc(C(C)(C)C)nn3-c3ccc4ncccc4c3)c(F)c2)ccn1` [REBASTINIB], for which the Kd is > 30 µM (inactive) in [1]; > 30 µM (inactive) in [2]; 4.69 µM (active) in experiment [8]; > 30 µM (inactive) in experiment [3]; > 30 µM (inactive) on Deoxycytidine kinase; > 30 µM (inactive) on Activin receptor type-1B. In addition, the Kd (in experiment [5]; in [6]; in [9]; on Ephrin type-B receptor 3) was > 30 µM (inactive) each time.
`CC(C)c1cc(CNc2nc(Nc3cc(C4CC4)[nH]n3)cc(N3CCN(C)CC3)n2)on1` [XL-228]: the Kd (in experiment [1]; in [7]; in experiment [8]; in experiment [3]; on Deoxycytidine kinase; in experiment [4]) was > 30 µM (inactive) each time. Moreover, the Kd (on Activin receptor type-1B; in [5]; in experiment [6]; at Ephrin type-B receptor 3) was > 30 µM (inactive) in each case.
